What was measured:
D(2) dopamine receptor [1] = biological target: T1, D(2) dopamine receptor (Rattus norvegicus, UniProt P61169); experiment: Inhibitory constant against binding of [125I]- IBZM to rat striatal membrane; set-up: species or system Striatum
D(2) dopamine receptor [2] = biological target: T1, D(2) dopamine receptor; experiment: Affinity constant of compound was evaluated in rat striatum tissue preparation.; format: tissue-based

T1 sequence (P61169 whole entry): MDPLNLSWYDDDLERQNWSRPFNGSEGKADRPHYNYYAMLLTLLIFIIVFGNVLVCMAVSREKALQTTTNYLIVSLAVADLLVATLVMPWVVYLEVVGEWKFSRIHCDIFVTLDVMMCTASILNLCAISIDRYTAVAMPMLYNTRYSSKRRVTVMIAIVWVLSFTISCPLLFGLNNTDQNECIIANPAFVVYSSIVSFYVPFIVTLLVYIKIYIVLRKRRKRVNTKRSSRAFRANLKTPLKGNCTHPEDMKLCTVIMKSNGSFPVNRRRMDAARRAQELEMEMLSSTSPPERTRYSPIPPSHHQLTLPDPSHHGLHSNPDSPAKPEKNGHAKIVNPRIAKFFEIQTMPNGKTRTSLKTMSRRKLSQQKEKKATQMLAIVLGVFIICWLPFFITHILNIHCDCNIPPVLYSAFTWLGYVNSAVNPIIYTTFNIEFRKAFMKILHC

| Compound | Ki (D(2) dopamine receptor [1]) [nM] | Ki (D(2) dopamine receptor [2]) [nM] |
| --- | --- | --- |
| CCN1CCC[C@H]1CNC(=O)c1c(O)cccc1OC | 31.1 | 31.1 |
| O=C(c1ccc(F)cc1)C1CCN(CCn2c(=O)[nH]c3ccccc3c2=O)CC1 [KETANSERIN] | 359 | – |

Results, then the compound that gave them:

| Ki (D(2) dopamine receptor [1]) [nM] | Ki (D(2) dopamine receptor [2]) [nM] | Compound |
| --- | --- | --- |
| 30.3 | – | CCN1CCC[C@@H]1CNC(=O)c1c(OC)ccc(I)c1O |
| 0.633 | – | CCN1CCC[C@H]1CNC(=O)c1c(OC)ccc(I)c1O [IOLOPRIDE] |
| – | 0.43 | CCN1CCCC1CNC(=O)c1c(OC)ccc(I)c1O (stereo unspecified) |

Source: ChEMBL document CHEMBL1124222 (J Med Chem, 1988)
